In brackets after ≈: the same amount, converted by molar mass.
Experiments:
[1] = target: T1, hA3G degradation mediated by HIV-1 Vif (UniProt P69723+Q9HC16); experiment: Screening experiment for up-regulation activity to hA3G (YFP-fused hA3G co-expressed with HIV-1 Vif, fluorescence); type: cell-based, human; settings: YFP fluorescence of cells co-expressing Vif and hA3G-YFP; excitation 485 nm, detection 520 nm; averages of duplicates
T1 construct: expressed in transfected cells
Text: Based on the advances making research on the hA3G degradation mediated by HIV-1 Vif, this invention establishes a high throughput anti-HIV-1 drug screening model using hA3G degradation mediated by HIV-1 Vif as target, to screen small molecule active compounds capable of inhibiting this degradation process. The function principle of this model is that HIV-1 Vif protein and hA3G fused yellow fluorescent protein (YFP) co-expressed in the cells, then the intracellular fluorescence intensity (at […]) decreases owing to the degradation of hA3G caused by Vif and subsequent degradation of YEP fused on hA3G. By means of measuring the change of fluorescent intensity, the influence of the screened compounds on the degradation of hA3G caused by Vif can quantitatively be analyzed. Simultaneously, to differentiate the non-specific inhibitory effect of diverse ubiquitin degradation route in the samples, this invention establishes a recheck model based on the detection of P53 degradation caused by the product of adenovirus early gene, to assure that the positive samples screened out by the proposed model can specifically block the degradation of hA3G caused by Vif.
Screening Experiment for Up-Regulation Activity to hA3G
The cells are picked up and cultured a culture bottle. When the cells grow full of the culture bottle, old culture medium is discarded and the cells are digested with digestion medium. When the cells turn round, the digestion medium is discarded and the culture medium is added in at once, the bottom of the bottle is gently blown with a pipette to make the cells disengage the bottle bottom and disperse into single cell suspension. After counting the cells using blood cell counting chamber, the cell suspension is inoculated into a culture dish for transfection. The medium containing the plasmid to be transfected and the transfection reagents is gently mixed up and incubated at room temperature. The medium is then added into the supernatant of the cell culture and cultured for a certain period of time. The old culture medium is then sucked out, the cells are digested with digestive medium, the digestive medium is subsequently discarded and culture medium is immediately added. The medium is gently blown to disperse the cells into single cell suspension. After counting the cells using blood cell counting chamber, the cells are ready for inoculation.
Samples of compounds[…]Pure tested compounds are dissolved in DMSO, the solution is diluted with equal proportional distilled water. The diluent is used to test the cell systems.
Sample solution of different concentration is added into the supernatant of a cell culture. After the cells are continuously cultured, old culture medium is sucked out and the cells are blown with PBS buffer until the cells completely disengage from the culture bottle.
The fluorescence intensity values of the cell suspension with test compound samples, positive control samples and negative control samples are respectively measured with fluorometer, the excitation wavelength is 485 nm and the detection wavelength 520 nm. Averages of duplicated measurements are taken as the results.
The measured fluorescence intensity values of the negative control samples (blink sample) subtracted from those of test compound samples, the results are taken as YFP fluorescence of different groups. Relative fluorescence intensity=fluorescence intensity of a test sample group/fluorescence intensity of the positive control group×100% Inhibition rate of degradation=(test sample group−negative control group)/(positive control group−negative control group)×100%

HIV-1 [2] = settings: HIV-1 P24 antigen in supernatant 4 days (96 h) after addition of compounds
Method: (§1) The inhibitory activities of the compounds proposed in this invention to HIV-1 were measured using HIV-1 P24 antigen kit.
(§2) DMSO solutions of samples of test compounds listed in Table 2 diluted to 8 different concentrations and the solution of the positive control AZT (azidothymidine, 0.15 ng/ml) are respectively added into 96 well plates, duplications are set for each of the dilutions, and negative control samples are also made. Aliquots of 100 μl 2×10^5 cell/ml suspension are inoculated onto the 96 well cell culture plates and cultured in an incubator under a condition of 37° C., 5% CO2 and saturated humidity. The pathologic changes of the cells are observed every day. The HIV-1 P24 antigen contents in supernatant cells are measured in 4 days (96 h) after addition of the test compounds according to the operation procedure provided by the HIV-1 P24 antigen kit.

HIV-1 [3] = experiment: microbe, parasite or virus in culture; settings: Human immunodeficiency virus 1, 96 h, read-out: inhibitory activity to HIV-1, IC50
Method: as §1, §2

T1 sequence (P69723 whole entry, the tested form may be a part): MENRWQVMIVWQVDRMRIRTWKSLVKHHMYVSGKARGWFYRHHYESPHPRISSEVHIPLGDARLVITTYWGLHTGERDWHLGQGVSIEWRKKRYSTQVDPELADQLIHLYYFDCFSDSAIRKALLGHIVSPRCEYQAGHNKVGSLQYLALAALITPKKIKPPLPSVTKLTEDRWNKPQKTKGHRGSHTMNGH
T1 sequence (Q9HC16 whole entry, the tested form may be a part): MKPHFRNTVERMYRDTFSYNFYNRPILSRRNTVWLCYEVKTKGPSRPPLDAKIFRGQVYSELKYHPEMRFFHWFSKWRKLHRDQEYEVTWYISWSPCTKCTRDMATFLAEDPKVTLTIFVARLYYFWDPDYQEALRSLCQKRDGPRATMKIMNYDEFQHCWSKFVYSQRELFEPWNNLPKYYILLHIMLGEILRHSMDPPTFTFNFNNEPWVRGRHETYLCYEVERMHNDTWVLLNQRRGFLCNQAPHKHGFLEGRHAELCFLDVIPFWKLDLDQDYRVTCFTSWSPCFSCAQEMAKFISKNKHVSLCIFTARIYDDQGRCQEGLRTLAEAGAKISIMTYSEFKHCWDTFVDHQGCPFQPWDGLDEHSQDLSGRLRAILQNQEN

| SMILES | hA3G up-regulation activity (%) [1] [%] | inhibitory activity to HIV-1, IC50 (HIV-1 [2]) [µg/mL] | IC50 (HIV-1 [3]) [µg/mL] |
| --- | --- | --- | --- |
| COc1ccc(C(=O)Oc2cc(OC)c(OC)c(OC)c2)cc1N [Compound 352, 3′,4′,5′-trimethoxyphenyl 3-amino-4-methoxybenzoate] | 37.0 | 0.0554 | – |
| CCC(=O)Nc1cc(C(=O)Nc2cc(OC)c(OC)c(OC)c2)ccc1OC [Compound 261, N-(3′,4′,5′-trimethoxyphenyl) 3-propionamido-4-methoxybenzamide] | 43.9 | – | 0.0227 (≈ 0.0584 µM) |
| COc1ccc(C(=O)Nc2cc(OC)c(OC)c(OC)c2)cc1N [Compound 262, N-(3′,4′,5′-trimethoxyphenyl) 3-amino-4-methoxybenzamide] | 36.2 | – | 0.0244 (≈ 0.0734 µM) |
| CCC(=O)Nc1cc(C(=O)Oc2cc(OC)c(OC)c(OC)c2)ccc1OC [Compound 351, 3′,4′,5′-trimethoxyphenyl 3-propionamido-4-methoxybenzoate] | 36.7 | – | 0.0299 (≈ 0.0768 µM) |
| CCC(=O)Nc1cc(C(=O)Nc2cc(OC)c(OC)c(OC)c2)cc(OC)c1F [Compound 75, N-(3′,4′,5′-trimethoxyphenyl)-3-propionamido-4-fluoro-5-methoxybenzamide] | −1.1 | – | – |
| COc1ccc(C(=O)Oc2cc(OC)c(OC)c(OC)c2)cc1NC(=O)C(C)Br (stereo not shown) [Compound 35] | 44.9 | – | 0.0223 (≈ 0.0476 µM) |
| CCC(=O)Nc1cc(C(=O)Nc2ccc([N+](=O)[O-])cc2)ccc1OC [Compound 2612, N-(4′-nitrophenyl)-3-propionamido-4-methoxybenzamide] | 22.3 | – | – |
| CCC(=O)Nc1cc(C(=O)Nc2cc(OC)nc(OC)n2)ccc1OC [Compound 33] | 21.5 | – | – |
| CCC(=O)Nc1cc(S(=O)(=O)Nc2ccc(NC)c(OC)c2)ccc1OC [Compound 96] | 6.9 | – | – |
| COc1ccc(C(=O)Oc2cc(OC)c(OC)c(OC)c2)cc1NS(C)(=O)=O [Compound 103, 3′,4′,5′-trimethoxyphenyl 3-methanesulfamido-4-methoxybenzoate] | 26.1 | – | – |
| COc1ccc(C(=O)Nc2cc(OC)c(OC)c(OC)c2)cc1NC(=O)CCl [Compound 1, N-(3′,4′,5′-trimethoxyphenyl)-3-(2-chloroacetamido)-4-methoxybenzamide] | 36.3 | – | – |
| CCC(=O)Nc1cc(C(=O)Nc2cc(OC)c(NC)c(OC)c2)ccc1OC [Compound 81] | 14.4 | – | – |
| COc1ccc(C(=O)Oc2cc(OC)c(OC)c(OC)c2)cc1NC(=O)CCl [Compound 27] | 32.1 | – | – |
| CCC(=O)Nc1cc(S(=O)(=O)Nc2cc(OC)c(OC)c(OC)c2)ccc1OC [Compound 83, N-(3′,4′,5′-trimethoxyphenyl) 3-propionamido-4-methoxybenzenesulfamide] | 31.0 | – | – |
| COc1ccc(S(=O)(=O)Nc2cc(OC)c(OC)c(OC)c2)cc1N [Compound 85, N-(3′,4′,5′-trimethoxyphenyl)-3-amino-4-methoxybenzenesulfonamide] | 6.8 | – | – |
| COc1ccc(C(=O)Cc2cc(OC)c(OC)c(OC)c2)cc1NC(=O)CCl [Compound 28] | 33.6 | – | – |
| CCC(=O)Nc1cc(S(=O)(=O)Oc2cc(OC)c(OC)c(OC)c2)ccc1OC [Compound 84, 3′,4′,5′-trimethoxyphenyl 3-propionamido-4-methoxybenzenesulfonate] | 9.0 | – | – |
| CCC(=O)Nc1cc(C(=O)Nc2ccnc(O)c2)ccc1OC [Compound 51] | 0.9 | – | – |
| CCC(=O)Nc1cc([S+]([O-])Nc2cc(OC)c(OC)c(OC)c2)ccc1OC (stereo not shown) [Compound 82] | 28.5 | – | – |
| COc1ccc(C(=O)Sc2cc(OC)c(OC)c(OC)c2)cc1NC(C)=O [Compound 22] | 24.6 | – | – |
| CNc1cc(C(=O)Nc2cc(OC)c(OC)c(OC)c2)ccc1O [Compound 34] | 38.3 | – | – |
| CCC(=O)Nc1cc(NC(=O)c2cc(OC)c(OC)c(OC)c2)ccc1OC [Compound 59] | 19.8 | – | – |

| SMILES | hA3G up-regulation activity (%) [1] [%] | inhibitory activity to HIV-1, IC50 (HIV-1 [2]) [µg/mL] | IC50 (HIV-1 [3]) [µg/mL] |
| --- | --- | --- | --- |
| CNc1cc(C(=O)Nc2cc(OC)nc(OC)n2)ccc1O [Compound 3, N-(2′,6′-dimethoxypyrimidinyl-4′-) 3-methylamino-4-hydroxylbenzamide] | 20.2 | – | – |
| CCC(=O)Nc1cc(C(=O)Nc2cc(OC)c[nH]2)ccc1OC [Compound 49, N-(4′-methoxypyrryl-2′-)-4-methoxy-3-propionamidobenzamide] | 9.8 | – | – |
| CCC(=O)Nc1cc(C(=O)Nc2ccc(S(N)(=O)=O)c(F)c2)ccc1OC [Compound 100] | 13.6 | – | – |
| CCC(=O)Nc1cc(C(=O)Nc2ccc(N)c(F)c2)ccc1OC [Compound 80, N-(3′-fluoro-4′-aminophenyl)-3-propionamido-4-methoxybenzamide] | 37.1 | – | – |
| CCC(=O)Nc1cc(C(=O)Nc2cc(OC)co2)ccc1OC [Compound 48, N-(4′-methoxyfuryl-2′-)-4-methoxy-3-propionamidobenzamide] | 16.4 | – | – |
| CCC(=O)Nc1cc(C(=O)Nc2ccc(Cl)cc2)ccc1OC [Compound 2613, N-(4′-chlorophenyl)-3-propionamido-4-methoxybenzamide] | 27.8 | – | 0.0138 (≈ 0.0415 µM) |
| CCC(Br)C(=O)Nc1cc(C(=O)Nc2cc(OC)c(OC)c(OC)c2)ccc1OC (stereo not shown) [Compound 31] | 26.4 | – | – |
| CCC(=O)Nc1cc(C(=O)Nc2ccncn2)ccc1OC [Compound 61, N-(pyrimidyl-4′-)-4-methoxy-3-propionamidobenzamide] | 11.8 | – | – |
| CCC(=O)Nc1cc(C(=O)Nc2cc(OC)ncn2)ccc1OC [Compound 47] | 18.2 | – | – |
| CCC(=O)Nc1cc(C(=O)Nc2ccc(OC)cc2)ccc1OC [Compound 2611, N-(4′-methoxyphenyl)-3-propionamido-4-methoxybenzamide] | 28.9 | – | 0.017 (≈ 0.0518 µM) |
| COc1ccc(C(=O)Sc2cc(OC)c(OC)c(OC)c2)cc1N [Compound 5, S-(3′,4′,5′-trimethoxyphenyl) 3-amino-4-methoxybenzenecarbothioate] | 14.4 | – | – |
| COc1ccc(C(=O)Cc2cc(OC)c(OC)c(OC)c2)cc1NC(=O)C(C)Cl (stereo not shown) [Compound 16] | 17.3 | – | – |
| COc1ccc(C(=O)Nc2cc(OC)c(OC)c(OC)c2)cc1NC(=O)C(C)Br (stereo not shown) [Compound 26] | 42.7 | – | 0.0203 (≈ 0.0434 µM) |
| CNc1cc(C(=O)Nc2ccc(S(N)(=O)=O)c(F)c2)ccc1OC [Compound 98, N-(3′-fluoro-4′-aminosulfonylphenyl)-3-methylamino-4-methoxybenzamide] | 5.8 | – | – |
| CNc1cc(C(=O)Nc2cc(OC)cc(OC)c2)ccc1OC [Compound 40, N-(3′,5′-dimethoxyphenyl)-3-methylamino-4-methoxybenzamide] | 12.7 | – | – |
| COc1ccc(C(=O)Oc2cc(OC)c(OC)c(OC)c2)cc1NC(C)=O [Compound 12] | 31.6 | – | – |
| COc1ccc(C(=O)Nc2cc(OC)c(OC)c(OC)c2)cc1NC(=O)C(F)(F)F [Compound 263, N-(3′,4′,5′-trimethoxyphenyl)-3-trifluoroacetamido-4-methoxybenzamide] | 24.4 | – | < 0.0137 |
| CCC(=O)Nc1cc(C(=O)Nc2cc(OC)c(OC)c(OC)c2)cc(F)c1OC [Compound 77] | 14.9 | – | – |
| COc1ccc(C(=O)Cc2cc(OC)c(OC)c(OC)c2)cc1NC(=O)CF [Compound 20] | 56.0 | – | – |
| CCNc1cc(C(=O)Nc2ccc(OC)c(OC)c2)ccc1OC [Compound 36] | 8.6 | – | – |
| COc1ccc(C(=O)Oc2cc(OC)c(OC)c(OC)c2)cc1NC(=O)C(F)(F)F [Compound 353, 3,4,5-trimethoxyphenyl 3-trifluoroacetamido-4-methoxybenzoate] | 39.0 | – | – |

— US8710098B2, “Group of amino substituted benzoyl derivatives and their preparation and their use” (priority 2008, dated 2014)
